Assay results reported in PMC9939733 (The Journal of Biological Chemistry, 2023).
Numbering of substitutions follows the chain as printed.

Assays:
Assay type in all cases: biochemical
[1] = molecular target: T1, WT IDH2 (Homo sapiens, UniProt P48735); experiment: Absorbance assay, substrate activity in the absence of DL-isocitrate; settings: no DL-isocitrate; […] test compound, 75 μM NADP+, 2.0 nM WT IDH2; compared to DL-isocitrate
T1 construct: made in house; host or cells: Sf21 insect cells (cell pellets prepared at Evotec)
T1 sequence (P48735 40-452): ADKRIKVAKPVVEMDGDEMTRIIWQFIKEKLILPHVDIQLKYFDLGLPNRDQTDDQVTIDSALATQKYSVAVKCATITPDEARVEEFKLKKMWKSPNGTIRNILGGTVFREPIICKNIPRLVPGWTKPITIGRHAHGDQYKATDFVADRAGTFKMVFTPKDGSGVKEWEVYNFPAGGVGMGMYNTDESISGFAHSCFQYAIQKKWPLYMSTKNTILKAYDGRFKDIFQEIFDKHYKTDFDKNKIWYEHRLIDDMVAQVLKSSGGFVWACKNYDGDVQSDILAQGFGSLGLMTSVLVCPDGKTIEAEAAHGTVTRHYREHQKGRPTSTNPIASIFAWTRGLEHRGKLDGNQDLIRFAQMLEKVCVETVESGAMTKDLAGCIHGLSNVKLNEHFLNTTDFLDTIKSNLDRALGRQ
Procedure: (§1) Compounds were dispensed using a CyBio SDW-CW CyBi-Well Simultaneous Pipettor and assay started using a ThermoFisher Multidrop Combi reagent dispenser.
(§2) Reactions were performed as technical quadruplicates.

[2] = molecular target: T2, WT IDH1 (Homo sapiens, UniProt O75874); experiment: as above; settings: no DL-isocitrate; […] test compound, 75 μM NADP+, 2.0 nM WT IDH1; compared to DL-isocitrate
T2 construct: made in house; host or cells: Escherichia coli BL21(DE3) pLyS
T2 sequence (O75874 whole entry): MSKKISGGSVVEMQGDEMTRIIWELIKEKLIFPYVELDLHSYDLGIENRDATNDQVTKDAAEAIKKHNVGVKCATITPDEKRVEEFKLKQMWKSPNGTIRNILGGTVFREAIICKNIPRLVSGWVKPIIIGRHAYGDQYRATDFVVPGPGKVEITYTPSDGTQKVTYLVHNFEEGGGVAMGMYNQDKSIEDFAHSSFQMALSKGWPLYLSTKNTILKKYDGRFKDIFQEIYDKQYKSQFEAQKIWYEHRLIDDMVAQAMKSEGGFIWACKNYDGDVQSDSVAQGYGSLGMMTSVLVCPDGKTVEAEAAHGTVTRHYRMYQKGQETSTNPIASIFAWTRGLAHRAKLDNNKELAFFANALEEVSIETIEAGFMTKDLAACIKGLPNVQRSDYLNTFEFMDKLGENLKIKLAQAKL
Procedure: as §1, §2

[3] = molecular target: T3, R132H IDH1 (Homo sapiens, UniProt O75874, R132H); experiment: Absorbance assay (NADPH consumption), substrate turnover in the absence of 2OG; parameters: made in house; host or cells: Escherichia coli BL21(DE3) pLyS
T3 sequence (O75874 whole entry R132H): as the sequence (O75874 whole entry) above, with R132H counted along it
Procedure: as §1, §2

[4] = molecular target: T4, R172K IDH2 (Homo sapiens, UniProt P48735, R172K); experiment: as above
T4 construct: made in house; host or cells: Sf21 insect cells (cell pellets prepared at Evotec)
T4 sequence (P48735 40-452 R172K): T1 sequence (P48735 40-452) with R133K
Procedure: as §1, §2

[5] = molecular target: T5, R140Q IDH2 (Homo sapiens, UniProt P48735, R140Q); experiment: as above
T5 construct: made in house; host or cells: Sf21 insect cells (cell pellets prepared at Evotec)
T5 sequence (P48735 40-452 R140Q): T1 sequence (P48735 40-452) with R101Q
Procedure: as §1, §2

[6] = molecular target: T4, R172K IDH2; experiment: Absorbance assay, variant activity in the presence of equimolar 2OG (inhibition screen)
Procedure: as §1, §2

[7] = molecular target: T3, R132H IDH1; experiment: as above; parameters: made in house; host or cells: Escherichia coli BL21(DE3) pLyS
Procedure: as §1, §2

[8] = molecular target: T1, WT IDH2; experiment: Absorbance assay, WT activity in the presence of equimolar DL-isocitrate (inhibition)
Procedure: as §1, §2

[9] = molecular target: T2, WT IDH1; experiment: as above
Procedure: as §1, §2

[10] = molecular target: T5, R140Q IDH2; experiment: Absorbance assay, variant activity in the presence of equimolar 2OG (inhibition screen)
Procedure: as §1, §2

[11] = no 2OG, […] test compound, 0.03 μM R132H IDH1, 50 μM NADPH, 2OG = 100
[12] = no 2OG, 1.0 mM test compound, 0.03 μM R172K IDH2, 50 μM NADPH, 2OG = 100
[13] = no 2OG, 6.0 mM test compound, 0.03 μM R140Q IDH2, 50 μM NADPH, 2OG = 100
[14] = 1.0 mM 2OG and 1.0 mM test compound, 0.03 μM R172K IDH2, 50 μM NADPH
[15] = […] 2OG and […] test compound, 0.03 μM R132H IDH1, 50 μM NADPH
[16] = […] isocitrate and […] test compound, 75 μM NADP+, 2.0 nM WT IDH2
[17] = […] isocitrate and […] test compound, 75 μM NADP+, 2.0 nM WT IDH1
[18] = 6.0 mM 2OG and 6.0 mM test compound, 0.03 μM R140Q IDH2, 50 μM NADPH

SMILES | activity [%] (%-substrate conversion after 20 min incubation) [1] | activity [%] (%-substrate conversion after 20 min incubation) [2] | activity [%] (%-substrate conversion after 20 min incubation) [3, 11] | activity [%] (%-substrate conversion after 20 min incubation) [4, 12] | activity [%] (%-substrate conversion after 20 min incubation) [5, 13] | activity [%] (%-substrate conversion after 20 min incubation) [6, 14] | activity [%] (%-substrate conversion after 20 min incubation) [7, 15] | activity [%] (%-substrate conversion after 20 min incubation) [8, 16] | activity [%] (%-substrate conversion after 20 min incubation) [9, 17] | activity [%] (%-substrate conversion after 20 min incubation) [10, 18] | activity [%] (%-substrate conversion after 20 min incubation) ([5]; no 2OG, 6.0 mM test compound, 0.03 μM R140Q IDH2, 50 μM NADPH, 2OG = 100, listed as DL-4-hydroxy-2OG) | activity [%] (%-substrate conversion after 20 min incubation) [3] | activity [%] (%-substrate conversion after 20 min incubation) [4] | activity [%] (%-substrate conversion after 20 min incubation) [5] | activity [%] (%-substrate conversion after 20 min incubation) [6] | activity [%] (%-substrate conversion after 20 min incubation) [10] | activity [%] (%-substrate conversion after 20 min incubation) [7] | activity [%] (%-substrate conversion after 20 min incubation) [8] | activity [%] (%-substrate conversion after 20 min incubation) [9]
CC(C)CC(=O)C(=O)O [α-ketoisocaproic acid] | – | – | < 10 | < 10 | < 10 | 104 ± 2 | 99 ± 2 | 102 ± 4 | 102 ± 2 | 106 ± 6 | – | – | – | – | – | – | – | – | –
O=C(O)C(=O)CC(O)C(=O)O (racemic) [DL-4-hydroxy-2-oxoglutaric acid] | – | – | < 10 | < 10 | 27 ± 3 | 98 ± 3 | 82 ± 5 | 87 ± 1 | 89 ± 1 | 124 ± 8 | ~20 | – | – | – | – | – | – | – | –
O=C(O)CC(O)(CC(=O)O)C(=O)O [DL-citric acid] | – | – | – | – | – | – | – | – | – | – | – | < 10 | < 10 | < 10 | 94 ± 4 | 122 ± 14 | 115 ± 25 | 101 ± 3 | 103 ± 3
COC(=O)CCC(=O)C(=O)OC [dimethyl 2-oxoglutaric acid] | – | – | < 10 | < 10 | < 10 | 100 ± 9 | 95 ± 3 | 97 ± 2 | 98 ± 1 | 124 ± 12 | – | – | – | – | – | – | – | – | –
COC(=O)CC(C)C(=O)OC (racemic) [DL-dimethyl 2-methylsuccinate] | – | – | < 10 | < 10 | < 10 | 91 ± 4 | 104 ± 2 | 100 ± 2 | 103 ± 1 | 116 ± 4 | – | – | – | – | – | – | – | – | –
O=C(O)C(=O)CCc1ccccc1 [2-oxo-4-phenylbutanoic acid] | – | – | < 10 | < 10 | < 10 | 96 ± 1 | 90 ± 3 | 96 ± 6 | 94 ± 2 | 98 ± 8 | – | – | – | – | – | – | – | – | –

Further lines, with some results ahead:

activity [%] (%-substrate conversion after 20 min incubation) [1] | activity [%] (%-substrate conversion after 20 min incubation) [2] | activity [%] (%-substrate conversion after 20 min incubation) [3, 11] | activity [%] (%-substrate conversion after 20 min incubation) [4, 12] | activity [%] (%-substrate conversion after 20 min incubation) [5, 13] | activity [%] (%-substrate conversion after 20 min incubation) [6, 14] | activity [%] (%-substrate conversion after 20 min incubation) [7, 15] | activity [%] (%-substrate conversion after 20 min incubation) [8, 16] | activity [%] (%-substrate conversion after 20 min incubation) [9, 17] | activity [%] (%-substrate conversion after 20 min incubation) [10, 18] | SMILES | activity [%] (%-substrate conversion after 20 min incubation) ([5]; no 2OG, 6.0 mM test compound, 0.03 μM R140Q IDH2, 50 μM NADPH, 2OG = 100, listed as DL-4-hydroxy-2OG) | activity [%] (%-substrate conversion after 20 min incubation) [3] | activity [%] (%-substrate conversion after 20 min incubation) [4] | activity [%] (%-substrate conversion after 20 min incubation) [5] | activity [%] (%-substrate conversion after 20 min incubation) [6] | activity [%] (%-substrate conversion after 20 min incubation) [10] | activity [%] (%-substrate conversion after 20 min incubation) [7] | activity [%] (%-substrate conversion after 20 min incubation) [8] | activity [%] (%-substrate conversion after 20 min incubation) [9]
< 10 | < 10 | < 10 | < 10 | < 10 | 85 ± 12 | 79 ± 1 | 100 ± 2 | 102 ± 4 | – | O=C(O)C(=O)C(=O)O [ketomalonic acid] | – | – | – | – | – | – | – | – | –
– | – | < 10 | < 10 | < 10 | 96 ± 1 | 97 ± 1 | 98 ± 3 | 102 ± 2 | 99 ± 5 | CSCCC(=O)C(=O)O [4-methylthio-2-oxobutyric acid] | – | – | – | – | – | – | – | – | –
– | – | < 10 | < 10 | < 10 | 95 ± 4 | 89 ± 5 | 95 ± 3 | 94 ± 2 | 98 ± 8 | O=C(O)CCC(O)C(=O)O (racemic) [DL-2-hydroglutaric acid] | – | – | – | – | – | – | – | – | –
– | – | < 10 | < 10 | < 10 | 104 ± 1 | 104 ± 7 | 101 ± 5 | 108 ± 4 | 82 ± 4 | N[C@@H](CCCC(=O)O)C(=O)O [L-2-aminoadipic acid] | – | – | – | – | – | – | – | – | –
– | – | < 10 | < 10 | < 10 | 94 ± 5 | 104 ± 2 | 98 ± 3 | 105 ± 4 | 102 ± 5 | CC[C@H](C)C(=O)C(=O)O [α-ketoisoleucine] | – | – | – | – | – | – | – | – | –
